Laboratory results: patent publication US7759486B2, “2,4,5-Trisubstituted pyrimidine compounds” (GlaxoSmithKline LLC, priority 2000, dated 2010)

In the case of `Cc1cc(F)ccc1-c1nc(O)nc2c1ccc(=O)n2-c1ccccc1F` (hydrate or solvate) [Example 144, 2-Hydroxy-4-(4-fluoro-2-methylphenyl)-8-(2-fluorophenyl)-8H-pyrido[2,3-d]pyrimidin-7-one], the melting point is reported as greater than 280 °C.
For `CSCCCOc1nc(-c2ccc(F)cc2C)c2ccc(=O)n(-c3c(F)cccc3F)c2n1` [Example 127, 8-(2,6-Difluorophenyl)-4-(4-fluoro-2-methylphenyl)-2-(3-methylsulfanylpropoxy)-8H-pyrido[2,3-d]pyrimidin-7-one], the melting point was 127 to 128 °C.
Compound `Cc1cc(F)ccc1-c1nc(OCCCS(C)(=O)=O)nc2c1ccc(=O)n2-c1c(F)cccc1F` [Example 128, 8-(2,6-Difluorophenyl)-4-(4-fluoro-2-methylphenyl)-2-(3-methanesulfonylpropoxy)-8H-pyrido[2,3-d]pyrimidin-7-one] has a melting point of 160 to 162 °C.
Work on `Cc1cc(F)ccc1-c1nc(OCCNC(=O)OC(C)(C)C)nc2c1ccc(=O)n2-c1c(F)cccc1F` [Example 130, 8-(2,6-Difluorophenyl)-4-(4-fluoro-2-methylphenyl)-2-[2-(tert-butoxycarbonylamino)ethoxy]-8H-pyrido[2,3-d]pyrimidin-7-one] yielded a melting point of 103 to 105 °C.
In the case of `Cc1cc(F)ccc1-c1nc(OCCN)nc2c1ccc(=O)n2-c1c(F)cccc1F` [Example 131, 8-(2,6-Difluorophenyl)-4-(4-fluoro-2-methylphenyl)-2-(2-aminoethoxy)-8H-pyrido[2,3-d]pyrimidin-7-one], the melting point is reported as 96 to 99 °C.
With `CC(=O)NCCOc1nc(-c2ccc(F)cc2C)c2ccc(=O)n(-c3c(F)cccc3F)c2n1` [Example 132, 8-(2,6-Difluorophenyl)-4-(4-fluoro-2-methylphenyl)-2-(2-acetylaminoethoxy)-8H-pyrido[2,3-d]pyrimidin-7-one] the melting point was 75 to 79 °C.
`Cc1cc(F)ccc1-c1nc(OCC(CO)CO)nc2c1ccc(=O)n2-c1c(F)cccc1F` [Example 133, 8-(2,6-Difluorophenyl)-4-(4-fluoro-2-methylphenyl)-2-(3-hydroxy-2-hydroxymethylpropoxy)-8H-pyrido[2,3-d]pyrimidin-7-one] showed a melting point of 77 to 81 °C.
`Cc1cc(F)ccc1-c1nc(OCCNS(C)(=O)=O)nc2c1ccc(=O)n2-c1c(F)cccc1F` [Example 134, 8-(2,6-Difluorophenyl)-4-(4-fluoro-2-methylphenyl)-2-(2-methanesulfonyl-aminoethoxy)-8H-pyrido[2,3-d]pyrimidin-7-one] gave a melting point of 95 to 99 °C.
`Cc1cc(F)ccc1-c1nc(OCCN(C)S(C)(=O)=O)nc2c1ccc(=O)n2-c1c(F)cccc1F` [Example 135, 8-(2,6-Difluorophenyl)-4-(4-fluoro-2-methylphenyl)-2-(2-N-methanesulfonyl-N-methylaminoethoxy)-8H-pyrido[2,3-d]pyrimidin-7-one] gave a melting point of 89 to 92 °C.
With `Cc1cc(F)ccc1-c1nc(NCCO)nc2c1ccc(=O)n2-c1ccccc1F` [Example 136, 4-(4-fluoro-2-methylphenyl)-8-(2-fluorophenyl)-2-(2-hydroxylethylamino)-5H-pyrido[2,3-d]pyrimidin-7-one] the melting point was 120 to 124 °C.
Compound `Cc1cc(F)ccc1-c1nc(N[C@@H](C)CO)nc2c1ccc(=O)n2-c1c(F)cccc1F` [Example 137, (S)-4-(4-fluoro-2-methylphenyl)-8-(2,6-difluorophenyl)-2-[(1-hydroxyprop-2-yl)amino]-8H-pyrido[2,3-d]pyrimidin-7-one] has a melting point of 96 to 101 °C.
In the case of `Cc1cc(F)ccc1-c1nc(N[C@H](C)CO)nc2c1ccc(=O)n2-c1c(F)cccc1F` [Example 138, (R)-4-(4-fluoro-2-methylphenyl)-8-(2,6-difluorophenyl)-2-[(1-hydroxyprop-2-yl)amino]-8H-pyrido[2,3-d]pyrimidin-7-one], the melting point is reported as 90 to 95 °C.
Work on `Cc1cc(F)ccc1-c1nc(NC(C)(C)CO)nc2c1ccc(=O)n2-c1c(F)cccc1F` [Example 139, 4-(4-fluoro-2-methylphenyl)-8-(2,6-difluorophenyl)-2-(1,1-dimethyl-2-hydroxyethylamino)-8H-pyrido[2,3-d]pyrimidin-7-one] yielded a melting point of 99 to 105 °C.
Compound `CCNc1nc(-c2ccc(F)cc2C)c2ccc(=O)n(-c3ccccc3F)c2n1` [Example 140, 2-Ethylamino-4-(4-fluoro-2-methylphenyl)-8-(2-fluorophenyl)-8H-pyrido[2,3-d]pyrimidin-7-one] has a melting point of 176 to 177 °C.
In the case of `Cc1cc(F)ccc1-c1nc(N[C@@H](C)CO)nc2c1ccc(=O)n2-c1ccccc1F` [Example 141, (S)-4-(4-fluoro-2-methylphenyl)-8-(2-fluorophenyl)-2-[(1-hydroxyprop-2-yl)amino]-8H-pyrido[2,3-d]pyrimidin-7-one], the melting point is reported as 114 to 120 °C.
In the case of `Cc1cc(F)ccc1-c1nc(N[C@H](C)CO)nc2c1ccc(=O)n2-c1ccccc1F` [Example 142, (R)-4-(4-fluoro-2-methylphenyl)-8-(2-fluorophenyl)-2-[(1-hydroxyprop-2-yl)amino]-8H-pyrido[2,3-d]pyrimidin-7-one], the melting point is reported as 116 to 122 °C.
`Cc1cc(F)ccc1-c1nc(NC(C)(C)CO)nc2c1ccc(=O)n2-c1ccccc1F` [Example 143, 2-(1,1-dimethyl-2-hydroxyethylamino)-4-(4-fluoro-2-methylphenyl)-8-(2 fluorophenyl)-8H-pyrido[2,3-d]pyrimidin-7-one] gave a melting point of 106 to 112 °C.
In the case of `Cc1cc(F)ccc1-c1nc(NC2CCCCC2)nc2c1ccc(=O)n2-c1ccccc1F` [Example 145, 2-Cyclohexylamino-4-(4-fluoro-2-methylphenyl)-8-(2-fluorophenyl)-5H-pyrido[2,3-d]pyrimidin-7-one], the melting point is reported as 181 to 182 °C.
With `Cc1cc(F)ccc1-c1nc(NC2CCOCC2)nc2c1ccc(=O)n2-c1ccccc1F` [Example 146, 2-(Tetrahydropyran-4-ylamino)-4-(4-fluoro-2-methylphenyl)-8-(2-fluorophenyl)-8H-pyrido[2,3-d]pyrimidin-7-one] the melting point was 211 to 212 °C.
With `CCNc1nc(-c2ccc(F)cc2C)c2ccc(=O)n(-c3c(F)cccc3F)c2n1` [Example 147, 2-Ethylamino-4-(4-fluoro-2-methylphenyl)-8-(2,6-difluorophenyl)-8H-pyrido[2,3-d]pyrimidin-7-one] the melting point was 195 to 196 °C.
`Cc1cc(F)ccc1-c1nc(NC2CCCCC2)nc2c1ccc(=O)n2-c1c(F)cccc1F` [Example 148, 2-Cyclohexylamino-4-(4-fluoro-2-methylphenyl)-8-(2,6-difluorophenyl)-8H-pyrido[2,3-d]pyrimidin-7-one] gave a melting point of 218 to 219 °C.
In the case of `Cc1cc(F)ccc1-c1nc(NC2CCOCC2)nc2c1ccc(=O)n2-c1c(F)cccc1F` [Example 149, 2-(Tetrahydropyran-4-ylamino)-4-(4-fluoro-2-methylphenyl)-8-(2,6-difluorophenyl)-8H-pyrido[2,3-d]pyrimidin-7-one], the melting point is reported as 231 to 232 °C.
`Cc1cc(F)ccc1-c1nc(NCC(F)(F)F)nc2c1ccc(=O)n2-c1ccccc1F` [Example 150, 2-(2,2,2-Trifluoroethylamino)-4-(4-fluoro-2-methylphenyl)-8-(2-fluorophenyl)-8H-pyrido[2,3-d]pyrimidin-7-one] showed a melting point of 187 to 188 °C.
For `Cc1cc(F)ccc1-c1nc(N[C@H]2CC[C@H](O)CC2)nc2c1ccc(=O)n2-c1ccccc1F` [Example 151, trans-2-(4-Hydroxycyclohexylamino)-4-(4-fluoro-2-methylphenyl)-8-(2-fluorophenyl)-8H-pyrido[2,3-d]pyrimidin-7-one], the melting point was 148 to 151 °C.
`Cc1cc(F)ccc1-c1nc(NC(C)(CO)CO)nc2c1ccc(=O)n2-c1ccccc1F` [Example 152, 2-(1-hydroxymethyl-1-methyl-2-hydroxyethylamino)-4-(4-fluoro-2-methylphenyl)-8-(2-fluorophenyl)-8H-pyrido[2,3-d]pyrimidin-7-one] showed a melting point of 160 to 162 °C.
In the case of `Cc1cc(F)ccc1-c1nc(NCC(F)(F)F)nc2c1ccc(=O)n2-c1c(F)cccc1F` [Example 153, 2-(2,2,2-Trifluoroethylamino)-4-(4-fluoro-2-methylphenyl)-8-(2,6-difluorophenyl)-8H-pyrido[2,3-d]pyrimidin-7-one], the melting point is reported as 195 to 196 °C.
With `Cc1cc(F)ccc1-c1nc(NC(C)(CO)CO)nc2c1ccc(=O)n2-c1c(F)cccc1F` [Example 154, 2-(1-hydroxymethyl-1-methyl-2-hydroxyethylamino)-4-(4-fluoro-2-methylphenyl)-8-(2,6-difluorophenyl)-8H-pyrido[2,3-d]pyrimidin-7-one] the melting point was 158 to 160 °C.
`Cc1cc(F)ccc1-c1nc(N[C@H]2CC[C@H](O)CC2)nc2c1ccc(=O)n2-c1c(F)cccc1F` [Example 155, trans-2-(4-Hydroxycyclohexylamino)-4-(4-fluoro-2-methylphenyl)-8-(2,6-difluorophenyl)-8H-pyrido[2,3-d]pyrimidin-7-one] showed a melting point of 158 to 160 °C.
`CCOc1nc(-c2ccc(F)cc2C)c2ccc(=O)n(-c3ccccc3F)c2n1` [Example 156, 2-Ethoxy-4-(4-fluoro-2-methylphenyl)-8-(2-fluorophenyl)-8H-pyrido[2,3-d]pyrimidin-7-one] showed a melting point of 137 to 139 °C.
`CCNC(=O)NCCNc1nc(-c2ccc(F)cc2C)c2ccc(=O)n(-c3c(F)cccc3F)c2n1` [Example 158, 1-[2-[8-(2,6-Difluorophenyl)-4-(4-fluoro-2-methylphenyl)-7-oxo-7,8-dihydro-pyrido[2,3-d]pyrimidin-2-ylamino]ethyl]-3-ethylurea] showed a melting point of 130 to 133 °C.
`Cc1cc(F)ccc1-c1nc(NCCNC(=O)Nc2ccccc2)nc2c1ccc(=O)n2-c1c(F)cccc1F` [Example 159] gave a melting point of 142 to 148 °C.
`Cc1cc(F)ccc1-c1nc(NCCNC(=O)NC2CCCCC2)nc2c1ccc(=O)n2-c1c(F)cccc1F` [Example 160, 1-[2-[8-(2,6-Difluorophenyl)-4-(4-fluoro-2-methylphenyl)-7-oxo-7,8-dihydro-pyrido[2,3-d]pyrimidin-2-ylamino]ethyl]-3-cyclohexylurea] gave a melting point of 178 to 183 °C.
In the case of `Cc1cc(F)ccc1-c1nc(NCCNC(=O)Nc2cccc(F)c2)nc2c1ccc(=O)n2-c1c(F)cccc1F` [Example 161, 1-[2-[8-(2,6-Difluorophenyl)-4-(4-fluoro-2-methylphenyl)-7-oxo-7,8-dihydro-pyrido[2,3-d]pyrimidin-2-ylamino]ethyl]-3-[3-fluorophenyl]urea], the melting point is reported as 131 to 144 °C.
